Data published in patent publication US7625878B2, “Sulfoalkyl ether-alkyl ether cyclodextrin derivatives” (The University of Kansas, priority 2003, dated 2009).

Tests used:
Type in all cases: physicochemical
[1] = binding constant K1:1 of inclusion complex with Nifedipine; settings: substrate Nifedipine, value (spread)
Procedure: (§1) The following tables detail some of the SAE-AE-CD's according to the invention. These products were made according to the examples below. The table indicates the inclusion complexes formed with the indicated drugs and cyclodextrins as well as their corresponding linear binding constants (K1:1) determined at 25° C.
(§2) Excess amount of drug was added to a CD-containing aqueous solution (concentration ranging from 0 to 0.10M). […] The suspension was centrifuged for 5 min. at 3000 rpm (Dynac™ centrifuge, Clay Adams, Parsippany, N.J.). A 20 μL sample was obtained from the supernatant and diluted to 1-5-ml with glass double distilled water.
(§3) The mobile phase(s) was chosen in accordance with the properties of the analyzed drug and its behavior in interacting with the chromatographic support. Suitable exemplary conditions for specific drugs are detailed in the table below.
(§4) The following general procedure was used to determine the extent of inclusion complex formation for an active agent/cyclodextrin derivative combination. The change in absorbance due to inclusion complex formation for a drug was monitored. The change in absorbance value as a function of total ligand concentration at a fixed concentration of substrate was measured. The wavelength for analysis was chosen appropriately depending on the analyzed drug. […]

[2] = binding constant K1:1 of inclusion complex with Triamcinolone; settings: substrate Triamcinolone, value (spread)
Procedure: as §1
(§5) The following general procedure was used to determine the extent of inclusion complex formation for an active agent/cyclodextrin derivative combination. The change in absorbance due to inclusion complex formation for a drug was monitored. The change in absorbance value as a function of total ligand concentration at a fixed concentration of substrate was measured. The wavelength for analysis was chosen appropriately depending on the analyzed drug. The analysis was performed using a Perkin Elmer double beam UV/Vis Lamda 6 instrument equipped with a data manager software and water jacketed multicell attachment. A circulating water bath was used to provide constant temperature during experiments. The data were linearized using the method described by Foster et al.: R. Foster, D. L. Hammich, A. A Wardley (Interaction of Polynitro compounds with Aromatic Hydroquinones and Bases. Part III. A New Method for Determining the Association Constants for Certain Interactions between Nitro Compounds and Bases in Solution. J. Chem. Soc. (1953) 3817-20). […]

[3] = binding constant K1:1 of inclusion complex with Clotrimazole; settings: substrate Clotrimazole, value (spread)
Procedure: as §1, §5

[4] = binding constant K1:1 of inclusion complex with Camptothecin; settings: substrate Camptothecin, value (spread)
Procedure: as §1, §2, §3

[5] = binding constant K1:1 of inclusion complex with Nitrendipine; settings: substrate Nitrendipine, value (spread)
Procedure: as §1, §5

[6] = binding constant K1:1 of inclusion complex with Prednisolone; settings: substrate Prednisolone, value (spread)
Procedure: as §1, §5

[7] = binding constant K1:1 of inclusion complex with α-Me-Prednisolone; settings: substrate α-Me-Prednisolone, value (spread)
Procedure: as §1, §2, §3, §4

[8] = binding constant K1:1 of inclusion complex with Nimodipine; settings: substrate Nimodipine, value (spread)
Procedure: as §1, §5

Row | SMILES | K1:1 25° C. [1] | K1:1 25° C. [2] | K1:1 25° C. [3] | K1:1 25° C. [4] [M⁻¹] | K1:1 25° C. [5] | K1:1 25° C. [6] | K1:1 25° C. [7] | K1:1 25° C. [8]
1 | OC[C@H]1O[C@@H]2O[C@H]3[C@H](O)[C@@H](O)[C@@H](O[C@H]4[C@H](O)[C@@H](O)[C@@H](O[C@H]5[C@H](O)[C@@H](O)[C@@H](O[C@H]6[C@H](O)[C@@H](O)[C@@H](O[C@H]7[C@H](O)[C@@H](O)[C@@H](O[C@H]8[C@H](O)[C@@H](O)[C@@H](O[C@H]1[C@H](O)[C@H]2O)O[C@@H]8CO)O[C@@H]7CO)O[C@@H]6CO)O[C@@H]5CO)O[C@@H]4CO)O[C@@H]3CO [β-CD, β-cyclodextrin] | 121.9(35) |  |  |  |  |  |  | 
2 | OC[C@H]1O[C@@H]2O[C@H]3[C@H](O)[C@@H](O)[C@@H](O[C@H]4[C@H](O)[C@@H](O)[C@@H](O[C@H]5[C@H](O)[C@@H](O)[C@@H](O[C@H]6[C@H](O)[C@@H](O)[C@@H](O[C@H]7[C@H](O)[C@@H](O)[C@@H](O[C@H]8[C@H](O)[C@@H](O)[C@@H](O[C@H]9[C@H](O)[C@@H](O)[C@@H](O[C@H]1[C@H](O)[C@H]2O)O[C@@H]9CO)O[C@@H]8CO)O[C@@H]7CO)O[C@@H]6CO)O[C@@H]5CO)O[C@@H]4CO)O[C@@H]3CO [γ-CD, γ-cyclodextrin] | 1416.1(162) | 9769 (560) | 1015(30) | 73 | 2508(59) | 3300.42(21) | 3038(269) | 1780(190)
